Settings: limosilactobacillus reuteri cf48-3a, 12 h, 2 µM
Description: The drug is tested on Lactobacillus reuteri CF48-3A strain: BEI HM-102 for biotransformation. The drug concentrations were measured before and after a 12-h incubation by liquid-chromatography-coupled mass spectrometry (LC–MS)

Structure (SMILES)	Bacterial Biotransformation
CCC(=O)NCC[C@@H]1CCc2ccc3c(c21)CCO3 [RAMELTEON]	Compound NOT metabolized
CCN(CC)CCNC(=O)c1cc(S(C)(=O)=O)ccc1OC [TIAPRIDE]	Compound NOT metabolized
CCCCC(=O)N(Cc1ccc(-c2ccccc2-c2nnn[nH]2)cc1)[C@H](C(=O)O)C(C)C	Compound NOT metabolized

Assay: The drug is tested on Bacteroides coprophilus strain: DSM18228 for biotransformation. The drug concentrations were measured before and after a 12-h incubation by liquid-chromatography-coupled mass spectrometry (LC–MS)
Settings: 2 µM

Structure (SMILES)	Bacterial Biotransformation
CCC(=O)NCC[C@@H]1CCc2ccc3c(c21)CCO3 [RAMELTEON]	Compound NOT metabolized
CCCCC(=O)N(Cc1ccc(-c2ccccc2-c2nnn[nH]2)cc1)[C@H](C(=O)O)C(C)C	Compound NOT metabolized

Assay: The drug is tested on Bacteroides vulgatus strain: ATCC8482 for biotransformation. The drug concentrations were measured before and after a 12-h incubation by liquid-chromatography-coupled mass spectrometry (LC–MS)
Settings: phocaeicola vulgatus, 2 µM

Structure (SMILES)	Bacterial Biotransformation
CCC(=O)NCC[C@@H]1CCc2ccc3c(c21)CCO3 [RAMELTEON]	Compound metabolized
CCN(CC)CCNC(=O)c1cc(S(C)(=O)=O)ccc1OC [TIAPRIDE]	Compound NOT metabolized
CCCCC(=O)N(Cc1ccc(-c2ccccc2-c2nnn[nH]2)cc1)[C@H](C(=O)O)C(C)C	Compound metabolized

Settings: bacteroides stercoris, 12 h, 2 µM
Description: The drug is tested on Bacteroides stercoris strain: ATCC43183 for biotransformation. The drug concentrations were measured before and after a 12-h incubation by liquid-chromatography-coupled mass spectrometry (LC–MS)

Structure (SMILES)	Bacterial Biotransformation
CCC(=O)NCC[C@@H]1CCc2ccc3c(c21)CCO3 [RAMELTEON]	Compound metabolized
CCCCC(=O)N(Cc1ccc(-c2ccccc2-c2nnn[nH]2)cc1)[C@H](C(=O)O)C(C)C	Compound NOT metabolized

Assay: The drug is tested on Subdoligranulum variabile strain: DSM15176 for biotransformation. The drug concentrations were measured before and after a 12-h incubation by liquid-chromatography-coupled mass spectrometry (LC–MS)
Settings: 2 µM

Structure (SMILES)	Bacterial Biotransformation
CCC(=O)NCC[C@@H]1CCc2ccc3c(c21)CCO3 [RAMELTEON]	Compound NOT metabolized
CCN(CC)CCNC(=O)c1cc(S(C)(=O)=O)ccc1OC [TIAPRIDE]	Compound NOT metabolized

Assay: The drug is tested on Ruminococcus torques strain: ATCC27756 for biotransformation. The drug concentrations were measured before and after a 12-h incubation by liquid-chromatography-coupled mass spectrometry (LC–MS)
Format: ADME
Set-up: dose 2 uM, timepoint 0 vs 12 hours
Settings: 2 µM

Structure (SMILES)	Bacterial Biotransformation
CCC(=O)NCC[C@@H]1CCc2ccc3c(c21)CCO3 [RAMELTEON]	Compound NOT metabolized
CCN(CC)CCNC(=O)c1cc(S(C)(=O)=O)ccc1OC [TIAPRIDE]	Compound NOT metabolized
CCCCC(=O)N(Cc1ccc(-c2ccccc2-c2nnn[nH]2)cc1)[C@H](C(=O)O)C(C)C	Compound NOT metabolized

Settings: anaerostipes sp., 12 h, 2 µM
Description: The drug is tested on Anaerostipes sp. strain: fecal isolate for biotransformation. The drug concentrations were measured before and after a 12-h incubation by liquid-chromatography-coupled mass spectrometry (LC–MS)

Structure (SMILES)	Bacterial Biotransformation
CCC(=O)NCC[C@@H]1CCc2ccc3c(c21)CCO3 [RAMELTEON]	Compound NOT metabolized
CCN(CC)CCNC(=O)c1cc(S(C)(=O)=O)ccc1OC [TIAPRIDE]	Compound NOT metabolized
CCCCC(=O)N(Cc1ccc(-c2ccccc2-c2nnn[nH]2)cc1)[C@H](C(=O)O)C(C)C	Compound NOT metabolized

Assay: The drug is tested on Clostridium symbiosum strain: ATCC14940 for biotransformation. The drug concentrations were measured before and after a 12-h incubation by liquid-chromatography-coupled mass spectrometry (LC–MS)
Settings: 2 µM

Structure (SMILES)	Bacterial Biotransformation
CCC(=O)NCC[C@@H]1CCc2ccc3c(c21)CCO3 [RAMELTEON]	Compound NOT metabolized
CCN(CC)CCNC(=O)c1cc(S(C)(=O)=O)ccc1OC [TIAPRIDE]	Compound NOT metabolized
CCCCC(=O)N(Cc1ccc(-c2ccccc2-c2nnn[nH]2)cc1)[C@H](C(=O)O)C(C)C	Compound NOT metabolized

Assay: The drug is tested on Bacteroides uniformis strain: ATCC8492 for biotransformation. The drug concentrations were measured before and after a 12-h incubation by liquid-chromatography-coupled mass spectrometry (LC–MS)
Settings: 2 µM

Structure (SMILES)	Bacterial Biotransformation
CCC(=O)NCC[C@@H]1CCc2ccc3c(c21)CCO3 [RAMELTEON]	Compound metabolized
CCN(CC)CCNC(=O)c1cc(S(C)(=O)=O)ccc1OC [TIAPRIDE]	Compound NOT metabolized
CCCCC(=O)N(Cc1ccc(-c2ccccc2-c2nnn[nH]2)cc1)[C@H](C(=O)O)C(C)C	Compound metabolized

Assay: The drug is tested on Eubacterium hallii strain: DSM3353 for biotransformation. The drug concentrations were measured before and after a 12-h incubation by liquid-chromatography-coupled mass spectrometry (LC–MS)
Settings: anaerobutyricum hallii, 2 µM

Structure (SMILES)	Bacterial Biotransformation
CCC(=O)NCC[C@@H]1CCc2ccc3c(c21)CCO3 [RAMELTEON]	Compound NOT metabolized
CCN(CC)CCNC(=O)c1cc(S(C)(=O)=O)ccc1OC [TIAPRIDE]	Compound NOT metabolized
CCCCC(=O)N(Cc1ccc(-c2ccccc2-c2nnn[nH]2)cc1)[C@H](C(=O)O)C(C)C	Compound NOT metabolized

Settings: bacteroides eggerthii, 12 h, 2 µM
Description: The drug is tested on Bacteroides eggerthii strain: DSM20697 for biotransformation. The drug concentrations were measured before and after a 12-h incubation by liquid-chromatography-coupled mass spectrometry (LC–MS)

Structure (SMILES)	Bacterial Biotransformation
CCC(=O)NCC[C@@H]1CCc2ccc3c(c21)CCO3 [RAMELTEON]	Compound metabolized
CCCCC(=O)N(Cc1ccc(-c2ccccc2-c2nnn[nH]2)cc1)[C@H](C(=O)O)C(C)C	Compound NOT metabolized

Assay: The drug is tested on Bacteroides xylanisolvens strain: DSM18836 for biotransformation. The drug concentrations were measured before and after a 12-h incubation by liquid-chromatography-coupled mass spectrometry (LC–MS)
Settings: 2 µM

Structure (SMILES)	Bacterial Biotransformation
CCC(=O)NCC[C@@H]1CCc2ccc3c(c21)CCO3 [RAMELTEON]	Compound metabolized
CCCCC(=O)N(Cc1ccc(-c2ccccc2-c2nnn[nH]2)cc1)[C@H](C(=O)O)C(C)C	Compound metabolized

Settings: bacteroides thetaiotaomicron, 12 h, 2 µM
Description: The drug is tested on Bacteroides thetaiotaomicron strain: 7330 for biotransformation. The drug concentrations were measured before and after a 12-h incubation by liquid-chromatography-coupled mass spectrometry (LC–MS)

Structure (SMILES)	Bacterial Biotransformation
CCN(CC)CCNC(=O)c1cc(S(C)(=O)=O)ccc1OC [TIAPRIDE]	Compound NOT metabolized
CCCCC(=O)N(Cc1ccc(-c2ccccc2-c2nnn[nH]2)cc1)[C@H](C(=O)O)C(C)C	Compound metabolized

Assay: The drug is tested on Collinsella intestinalis strain: DSM13280 for biotransformation. The drug concentrations were measured before and after a 12-h incubation by liquid-chromatography-coupled mass spectrometry (LC–MS)
Settings: 2 µM

Structure (SMILES)	Bacterial Biotransformation
CCC(=O)NCC[C@@H]1CCc2ccc3c(c21)CCO3 [RAMELTEON]	Compound NOT metabolized
CCN(CC)CCNC(=O)c1cc(S(C)(=O)=O)ccc1OC [TIAPRIDE]	Compound NOT metabolized
CCCCC(=O)N(Cc1ccc(-c2ccccc2-c2nnn[nH]2)cc1)[C@H](C(=O)O)C(C)C	Compound NOT metabolized

Assay: The drug is tested on Bacteroides dorei strain: DSM17855 for biotransformation. The drug concentrations were measured before and after a 12-h incubation by liquid-chromatography-coupled mass spectrometry (LC–MS)
Settings: phocaeicola dorei, 2 µM

Structure (SMILES)	Bacterial Biotransformation
CCC(=O)NCC[C@@H]1CCc2ccc3c(c21)CCO3 [RAMELTEON]	Compound metabolized
CCN(CC)CCNC(=O)c1cc(S(C)(=O)=O)ccc1OC [TIAPRIDE]	Compound NOT metabolized
CCCCC(=O)N(Cc1ccc(-c2ccccc2-c2nnn[nH]2)cc1)[C@H](C(=O)O)C(C)C	Compound NOT metabolized

Assay: The drug is tested on Anaerotruncus colihominis strain: DSM17241 for biotransformation. The drug concentrations were measured before and after a 12-h incubation by liquid-chromatography-coupled mass spectrometry (LC–MS)
Settings: 2 µM

Structure (SMILES)	Bacterial Biotransformation
CCC(=O)NCC[C@@H]1CCc2ccc3c(c21)CCO3 [RAMELTEON]	Compound NOT metabolized
CCN(CC)CCNC(=O)c1cc(S(C)(=O)=O)ccc1OC [TIAPRIDE]	Compound NOT metabolized
CCCCC(=O)N(Cc1ccc(-c2ccccc2-c2nnn[nH]2)cc1)[C@H](C(=O)O)C(C)C	Compound NOT metabolized

Settings: parabacteroides distasonis, 12 h, 2 µM
Description: The drug is tested on Parabacteroides distasonis strain: ATCC8503 for biotransformation. The drug concentrations were measured before and after a 12-h incubation by liquid-chromatography-coupled mass spectrometry (LC–MS)

Structure (SMILES)	Bacterial Biotransformation
CCC(=O)NCC[C@@H]1CCc2ccc3c(c21)CCO3 [RAMELTEON]	Compound metabolized
CCN(CC)CCNC(=O)c1cc(S(C)(=O)=O)ccc1OC [TIAPRIDE]	Compound NOT metabolized
CCCCC(=O)N(Cc1ccc(-c2ccccc2-c2nnn[nH]2)cc1)[C@H](C(=O)O)C(C)C	Compound metabolized

Assay: The drug is tested on Bacteroides sp. WH2 strain: WH2 for biotransformation. The drug concentrations were measured before and after a 12-h incubation by liquid-chromatography-coupled mass spectrometry (LC–MS)
Settings: bacteroides sp. wh2, 12 h, 2 µM

Structure (SMILES)	Bacterial Biotransformation
CCC(=O)NCC[C@@H]1CCc2ccc3c(c21)CCO3 [RAMELTEON]	Compound NOT metabolized
CCN(CC)CCNC(=O)c1cc(S(C)(=O)=O)ccc1OC [TIAPRIDE]	Compound NOT metabolized
CCCCC(=O)N(Cc1ccc(-c2ccccc2-c2nnn[nH]2)cc1)[C@H](C(=O)O)C(C)C	Compound NOT metabolized

Assay: The drug is tested on Clostridium sporogenes strain: ATCC15579 for biotransformation. The drug concentrations were measured before and after a 12-h incubation by liquid-chromatography-coupled mass spectrometry (LC–MS)
Settings: 2 µM

Structure (SMILES)	Bacterial Biotransformation
CCC(=O)NCC[C@@H]1CCc2ccc3c(c21)CCO3 [RAMELTEON]	Compound NOT metabolized
CCN(CC)CCNC(=O)c1cc(S(C)(=O)=O)ccc1OC [TIAPRIDE]	Compound NOT metabolized
CCCCC(=O)N(Cc1ccc(-c2ccccc2-c2nnn[nH]2)cc1)[C@H](C(=O)O)C(C)C	Compound NOT metabolized
